Measurements published in ChEMBL document CHEMBL3045920, “Antifeedant activity of some diterpenoids” (1999).

How the values were obtained:
Type in all cases: functional
[1] = system: Henosepilachna vigintioctopunctata; assay: Antifeedant activity against adults of Henosepilachna vigintioctopunctata at 0.05 mg/cm'2 after 4 hr
[2] = system: Henosepilachna vigintioctopunctata; assay: Antifeedant activity against fourth-instar nymphs of Henosepilachna vigintioctopunctata at 0.5 mg/cm'2 after 4 hr
[3] = system: Henosepilachna vigintioctopunctata; assay: Antifeedant activity against adults of Henosepilachna vigintioctopunctata at 5 mg/cm'2 after 4 hr
[4] = system: Henosepilachna vigintioctopunctata; assay: Antifeedant activity against fourth-instar nymphs of Henosepilachna vigintioctopunctata at 5 mg/cm'2 after 4 hr
[5] = system: Henosepilachna vigintioctopunctata; assay: Antifeedant activity against fourth-instar nymphs of Henosepilachna vigintioctopunctata at 0.05 mg/cm'2 after 4 hr
[6] = system: Henosepilachna vigintioctopunctata; assay: Antifeedant activity against adults of Henosepilachna vigintioctopunctata at 0.5 mg/cm'2 after 4 hr

In the case of `C[C@@]12CCCC(CO)(CO)[C@H]1CC[C@H](CO)[C@H]2CCC1=CCOC1=O` [WIGHTIONOLIDE], the Activity [1] is reported as 18.42%, the Activity [2] is reported as -14.03% and the Activity [3] is reported as -4.1%. It also gave an Activity [4] of -11.72%, an Activity [5] of -52.79% and an Activity [6] of 7.15%.

`CC(=O)OC[C@@]12[C@@H](OC(C)=O)C[C@@H](C)[C@](C)([C@@H]3C[C@H]4C=CO[C@H]4O3)[C@H]1CC[C@H](OC(C)=O)[C@]21CO1` [3-EPICARYOPTIN] was tested, and the Activity [1] was 31.07%, the Activity [2] was 9.37% and the Activity [3] was 31.93%. For the same compound, the Activity [4] was 23.56%, the Activity [5] was 16.12% and the Activity [6] was 37.02%.

In the case of `C=C1CC[C@@H]2[C@](C)(CO)[C@H](O)CC[C@@]2(C)[C@@H]1C/C=C1/C(=O)OC[C@H]1O` [ANDROGRAPHOLIDE], the Activity [1] is reported as -10.95%, the Activity [2] is reported as -52.38% and the Activity [3] is reported as 24.26%. For the same compound, the Activity [4] was 54.06%, the Activity [5] was -16.76% and the Activity [6] was 1.04%.

Work on `CC(=O)OC[C@@]12[C@@H](OC(C)=O)C[C@@H](C)[C@](C)([C@@H]3C[C@H]4C=CO[C@H]4O3)[C@H]1CC[C@@H](OC(C)=O)[C@]21CO1` [CARYOPTIN] yielded an Activity [1] of -5.31%, an Activity [2] of 72.51% and an Activity [3] of 84.95%. For the same compound, the Activity [4] was 44.46%, the Activity [5] was 34.37% and the Activity [6] was -10.03%.

Work on `CC(=O)OC[C@@]12C=C[C@@H](C)[C@](C)([C@@H]3C[C@H]4C(OC(C)=O)CO[C@H]4O3)[C@H]1CC[C@H](OC(C)=O)[C@]21CO1` (stereo partly specified) yielded an Activity [1] of -20.26%, an Activity [2] of -1.39% and an Activity [3] of 23.45%. For the same compound, the Activity [4] was 1.28%, the Activity [5] was -18.69% and the Activity [6] was 22.53%.

`CC(=O)OC[C@@]12[C@@H](OC(C)=O)C[C@@H](C)[C@](C)([C@@H]3C[C@@H]4CCO[C@H]4O3)[C@H]1CC[C@H](OC(C)=O)[C@]21CO1` [14,15-DIHYDRO-3-EPICARYOPTIN] showed an Activity [1] of 10.2%, an Activity [2] of 20.39% and an Activity [3] of 39.34%. The Activity [4] was 39.2%, the Activity [5] was 21.14% and the Activity [6] was 8.39%.
